Experiment [1] addresses BaF3 cells into which JAK2 V617F gene was introduced (Homo sapiens, UniProt O60674, V617F, cells depend on it). Nature of the experiment: Test 2: growth inhibitory action against variant JAK2 expressed cells (MTT method). In kind it is cell-based. Conditions: incubation for 3 days, triplicate, read-out: concentration of the test material which inhibited 50% of the cell growth (IC50). Here is the method:
Test 2: Growth inhibitory action against variant JAK2 expressed cells
BaF3 cells into which JAK2 V617F gene was introduced ([…]) were inoculated on a 96-well plate in an amount of 1×10^3 cells/well and allowed to stand in a CO2 incubator. Next day, the test material was added to the cells. The test material was serially diluted with DMSO to give 10 mM, 6 mM, 3 mM, 1 mM, 600 μM, 300 μM, 100 μM, 60 μM, 30 μM, or 10 μM solution. This was diluted 100 times with distilled water to give 100 μM, 60 μM, 30 μM, 10 μM, 6 μM, 3 μM, 1 μM, 600 nM, 300 nM, or 100 nM solution. This solution of test material was added to the well in an amount of 10 μl/well. As a negative control, 1% DMSO solution was added to the well in an amount of 10 μl/well. In the above operation, the final concentration of the test material became 10 μM, 6 μM, 3 μM, 1 μM, 600 nM, 300 nM, 100 nM, 60 nM, 30 nM, 10 nM, or 0 nM (0.1% DMSO solution). The addition of the test material solution to each well was made in triplicate.
After continuous incubation for 3 days, the viable count was determined by an MTT method. The MTT method was carried out as follows. First, 10 μl each of solution containing 5 mg/ml of MTT (3-(4,5-dimethylthiazol-2-yl)-2,5-diphenyltetrazolium bromide) was added to each well. The plate was allowed to stand in a CO2 incubator for 4 hours, and then 100 μl of 0.04N HCl/2-propanol solution was added to each well to stop the reaction. The generated MTT-formazan was dissolved well with a multi-channel pipette, and the absorbance at 595 nm was measured with reference to that at 655 nm (Thermo Co.; Multiskan FC). Non-linear regression analysis was made by means of a SAS system (SAS Institute Inc.), and the concentration (IC50) of the test material which inhibited 50% of the cell growth was estimated.

The target of another experiment is T1, JAK2 tyrosine kinase (Homo sapiens, UniProt O60674).
T1 construct: purchased Carnabioscience Co
T1 sequence (O60674 whole entry): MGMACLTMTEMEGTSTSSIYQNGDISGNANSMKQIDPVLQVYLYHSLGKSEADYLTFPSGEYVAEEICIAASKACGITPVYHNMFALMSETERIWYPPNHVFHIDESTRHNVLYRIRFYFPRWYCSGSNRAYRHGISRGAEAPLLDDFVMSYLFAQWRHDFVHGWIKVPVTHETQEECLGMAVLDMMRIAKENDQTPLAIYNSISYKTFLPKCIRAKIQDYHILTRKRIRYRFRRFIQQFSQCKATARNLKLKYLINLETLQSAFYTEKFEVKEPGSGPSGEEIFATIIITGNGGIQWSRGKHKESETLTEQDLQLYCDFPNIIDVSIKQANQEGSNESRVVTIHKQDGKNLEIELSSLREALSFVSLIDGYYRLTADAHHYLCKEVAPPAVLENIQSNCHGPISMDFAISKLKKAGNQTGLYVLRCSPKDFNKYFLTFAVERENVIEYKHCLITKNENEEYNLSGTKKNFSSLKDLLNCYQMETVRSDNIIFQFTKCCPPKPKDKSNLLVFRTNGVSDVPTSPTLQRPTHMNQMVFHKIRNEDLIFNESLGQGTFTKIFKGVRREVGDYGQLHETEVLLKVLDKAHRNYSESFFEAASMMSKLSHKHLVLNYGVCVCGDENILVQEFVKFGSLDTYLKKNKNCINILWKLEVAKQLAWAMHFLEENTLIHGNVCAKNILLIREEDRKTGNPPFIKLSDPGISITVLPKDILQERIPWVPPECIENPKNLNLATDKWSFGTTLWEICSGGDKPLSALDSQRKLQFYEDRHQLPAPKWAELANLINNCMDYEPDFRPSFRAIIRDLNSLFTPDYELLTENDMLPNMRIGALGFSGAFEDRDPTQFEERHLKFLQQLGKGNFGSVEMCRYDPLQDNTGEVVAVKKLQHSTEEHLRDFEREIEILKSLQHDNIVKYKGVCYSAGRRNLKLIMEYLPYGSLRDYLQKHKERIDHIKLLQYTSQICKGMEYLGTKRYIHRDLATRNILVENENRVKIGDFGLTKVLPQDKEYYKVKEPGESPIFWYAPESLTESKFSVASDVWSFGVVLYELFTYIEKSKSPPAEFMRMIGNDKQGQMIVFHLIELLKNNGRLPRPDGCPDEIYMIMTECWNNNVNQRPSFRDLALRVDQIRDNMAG
Briefly: Test 1: inhibitory activity to JAK2 tyrosine kinase (ELISA). It is filed as biochemical. Conditions: 25 μM ATP in substrate solution, 30° C. for 1 hour, n=2. An outline of the steps: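 Human JAK2 (diluted to 0.75 nM before addition) phosphorylated a biotinylated peptide on streptavidin plates for 1 h at 30 °C. The substrate mix held 625 nM peptide, 25 μM ATP and 25 mM MgCl2 in 15 mM Tris pH 7.5, 0.01% Tween-20 and 1 mM DTT. Phosphotyrosine was detected by HRP antibody/TMB at 450 nm, and IC50 was obtained by non-linear regression; duplicates were run.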

A further experiment concerns the target T2, JAK3 tyrosine kinase (Homo sapiens, UniProt P52333).
T2 construct: purchased Carnabioscience Co
T2 sequence (P52333 1-1124): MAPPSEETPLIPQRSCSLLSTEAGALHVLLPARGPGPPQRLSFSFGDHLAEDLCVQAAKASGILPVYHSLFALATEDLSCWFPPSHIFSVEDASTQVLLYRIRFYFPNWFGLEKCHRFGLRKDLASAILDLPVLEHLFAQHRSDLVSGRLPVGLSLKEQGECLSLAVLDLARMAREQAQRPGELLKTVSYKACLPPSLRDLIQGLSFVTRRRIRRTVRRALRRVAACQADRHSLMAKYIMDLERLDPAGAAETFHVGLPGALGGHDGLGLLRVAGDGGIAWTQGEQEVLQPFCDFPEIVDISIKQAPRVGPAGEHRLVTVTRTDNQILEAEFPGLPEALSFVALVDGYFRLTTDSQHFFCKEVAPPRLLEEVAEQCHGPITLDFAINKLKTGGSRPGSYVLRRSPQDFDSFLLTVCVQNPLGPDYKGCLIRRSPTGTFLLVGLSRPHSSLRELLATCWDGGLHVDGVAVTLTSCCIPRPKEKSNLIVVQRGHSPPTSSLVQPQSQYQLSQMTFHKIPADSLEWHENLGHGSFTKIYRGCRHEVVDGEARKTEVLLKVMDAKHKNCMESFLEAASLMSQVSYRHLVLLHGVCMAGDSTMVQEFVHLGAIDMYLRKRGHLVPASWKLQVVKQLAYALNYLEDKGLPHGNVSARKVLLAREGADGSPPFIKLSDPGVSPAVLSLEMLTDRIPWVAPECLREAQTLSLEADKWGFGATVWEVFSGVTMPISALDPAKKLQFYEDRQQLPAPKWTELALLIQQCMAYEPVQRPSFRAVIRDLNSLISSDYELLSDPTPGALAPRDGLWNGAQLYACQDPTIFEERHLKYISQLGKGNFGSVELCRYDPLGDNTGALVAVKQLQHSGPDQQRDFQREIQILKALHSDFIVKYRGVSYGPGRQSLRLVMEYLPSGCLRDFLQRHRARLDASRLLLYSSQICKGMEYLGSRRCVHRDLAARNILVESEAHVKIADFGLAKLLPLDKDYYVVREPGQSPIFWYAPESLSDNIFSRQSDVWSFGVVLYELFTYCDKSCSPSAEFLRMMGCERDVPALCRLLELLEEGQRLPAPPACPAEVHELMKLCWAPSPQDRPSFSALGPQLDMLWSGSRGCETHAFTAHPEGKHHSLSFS
Nature of the experiment: Test 1: inhibitory activity to JAK3 tyrosine kinase (ELISA). In kind it is biochemical. Particulars: 25 μM ATP in substrate solution, 30° C. for 1 hour, n=2. The method in brief: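 ELISA of JAK3 kinase activity with absorbance read at 450 nm. Compounds were tested from DMSO dilution series at 100-fold the measurement concentrations (1000–0.01 μM), diluted up to 20 times in assay buffer, against a DMSO negative control. IC50 was estimated by non-linear regression of absorbance.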
(An ELISA detects its analyte on a solid surface through an enzyme-linked reagent.)

Where a name gives a salt, the structure may show the parent alone.

Sequence of BaF3 cells into which JAK2 V617F gene was introduced (O60674 whole entry V617F): as the sequence (O60674 whole entry) above, with V617F counted along it

In general, IC50 refers to the concentration that gives 50% inhibition. As for `C[C@H](Nc1nc(Nc2cnccn2)cc(N2CCC(C(N)=O)CC2)n1)c1ccc(F)cc1` [Example 56, (S)-1-{2-[1-(4-Fluorophenyl)ethylamino]-6-(pyrazin-2-ylamino)pyrimidin-4-yl}piperidine-4-carboxamide hydrochloride], in experiment [1], the GI50 was 81 nM. The IC50 against JAK2 tyrosine kinase amounted to 0.79 nM; against JAK3 tyrosine kinase, 24 nM.

Regarding `C[C@H](Nc1nc(Nc2cnccn2)cc(N2CCC(NS(C)(=O)=O)C2)n1)c1ccc(F)cc1` (stereo partly drawn) [Example 60, N-(1-{2-[(S)-1-(4-Fluorophenyl)ethylamino]-6-(pyrazin-2-ylamino)pyrimidin-4-yl}pyrrolidin-3-yl)methanesulfonamide hydrochloride], the GI50 in experiment [1] is 80 nM. The IC50 at JAK2 tyrosine kinase amounted to 0.71 nM; at JAK3 tyrosine kinase it was 28 nM.

`C[C@H](Nc1nc(Nc2cnccn2)cc(N2CCN(S(C)(=O)=O)CC2)n1)c1ccc(F)cc1` [Example 65, (S)—N^2-[1-(4-Fluorophenyl)ethyl]-6-[4-(methylsulfonyl)piperazin-1-yl]-N^4-(pyrazin-2-yl)pyrimidine-2,4-diamine hydrochloride]: the GI50 in experiment [1] was 93 nM. The IC50 on JAK2 tyrosine kinase turned out to be 0.27 nM; at JAK3 tyrosine kinase, 8.9 nM.

`C[C@H](Nc1nc(Nc2cnccn2)cc(N2CCC(O)(CO)CC2)n1)c1ccc(F)cc1` [Example 105, (S)-1-{2-[1-(4-Fluorophenyl)ethylamino]-6-(pyrazin-2-ylamino)pyrimidin-4-yl}-4-(hydroxymethyl)piperidin-4-ol]: the GI50 in experiment [1] came to 60 nM. Moreover, the IC50 against JAK2 tyrosine kinase came to 0.55 nM; against JAK3 tyrosine kinase, 27 nM.

Regarding `C[C@H](Nc1nc(Nc2cnccn2)cc(N2CCC3(CC2)COC(=O)O3)n1)c1ccc(F)cc1` [Example 112, (S)-8-{2-[1-(4-Fluorophenyl)ethylamino]-6-(pyrazin-2-ylamino)pyrimidin-4-yl}-1,3-dioxo-8-azaspiro[4.5]decan-2-one], the GI50 in experiment [1] is 64 nM. Also, the results for the concentration for half-maximal inhibition (IC50) on JAK2 tyrosine kinase and against JAK3 tyrosine kinase were 0.69 nM and 67 nM, respectively.

Take `CCCNC(=O)c1cc(Nc2cnccn2)nc(N[C@@H](C)c2ccc(F)cc2)c1` [Example 166, (S)-2-[1-(4-Fluorophenyl)ethylamino]-N-propyl-6-(pyrazin-2-ylamino)isonicotinamide]: the GI50 in experiment [1] turned out to be 64 nM. In addition, the figures for the IC50 against JAK2 tyrosine kinase and at JAK3 tyrosine kinase were 2.2 nM and 380 nM, respectively.

With `C[C@H](Nc1cc(C(=O)NCC2CC2)cc(Nc2cnccn2)n1)c1ccc(F)cc1` [Example 167, (S)—N-Cyclopropylmethyl-2-[1-(4-fluorophenyl)ethylamino]-6-(pyrazin-2-ylamino) isonicotinamide], in experiment [1], the GI50 was 63 nM. Besides, the IC50 against JAK2 tyrosine kinase came out at 1.6 nM; against JAK3 tyrosine kinase it was 350 nM.

With `CC(C)CNC(=O)c1cc(Nc2cnccn2)nc(N[C@@H](C)c2ccc(F)cc2)c1` [Example 170, (S)-2-[1-(4-Fluorophenyl)ethylamino]-N-isobutyl-6-(pyrazin-2-ylamino) isonicotinamide], the GI50 in experiment [1] was 77 nM. Besides, the results for the IC50 on JAK2 tyrosine kinase and at JAK3 tyrosine kinase were 1.2 nM and 180 nM, respectively.

Consider `C[C@H](Nc1nc(Nc2cnccn2)cc(N2CC(O)(C3CC3)C2)n1)c1ccc(F)cc1` [Example 200, (S)-3-Cyclopropyl-1-{2-[1-(4-fluorophenyl)ethylamino]-6-(pyrazin-2-ylamino)pyrimidin-4-yl}azetidin-3-ol hydrochloride], for which the GI50 in experiment [1] was determined as 70 nM. Further, the half-maximal inhibitory concentration (IC50) against JAK2 tyrosine kinase is 0.39 nM; at JAK3 tyrosine kinase, 26 nM.

For `C[C@H](Nc1nc(Nc2cnccn2)cc(N2CC(N(C)C)C2)n1)c1ccc(F)cc1` [Example 220, (S)-6-[3-(Dimethylamino)azetidin-1-yl]-N^2-[1-(4-fluorophenyl)ethyl]-N^4-(pyrazin-2-yl)pyrimidine-2,4-diamine], in experiment [1], the GI50 worked out at 64 nM. The IC50 on JAK2 tyrosine kinase turned out to be 0.98 nM; against JAK3 tyrosine kinase, 24 nM.

As for `C[C@H](Nc1nc(Nc2cnccn2)cc(N2CC(N3CCCC3)C2)n1)c1ccc(F)cc1` [Example 222, (S)—N^2-[1-(4-Fluorophenyl)ethyl]-N^4-(pyrazin-2-yl)-6-[3-(pyrrolidin-1-yl)azetidin-1-yl]pyrimidine-2,4-diamine], the GI50 in experiment [1] amounted to 66 nM. In addition, the IC50 at JAK2 tyrosine kinase was found to be 0.75 nM; on JAK3 tyrosine kinase, 18 nM.

`C[C@H](Nc1nc(Nc2cnccn2)cc(N2CC(N3CCOCC3)C2)n1)c1ccc(F)cc1` [Example 223, (S)—N^2-[1-(4-Fluorophenyl)ethyl]-6-(3-morpholinoazetidin-1-yl)-N^4-(pyrazin-2-yl)pyrimidine-2,4-diamine]: the GI50 in experiment [1] is 57 nM. Further, the half-maximal inhibitory concentration (IC50) at JAK2 tyrosine kinase was found to be 0.65 nM; against JAK3 tyrosine kinase, 11 nM.

Regarding `C[C@H](Nc1nc(Nc2cnccn2)cc(N2CC(N3CCN(C)CC3)C2)n1)c1ccc(F)cc1` [Example 224, (S)—N^2-[1-(4-Fluorophenyl)ethyl]-6-[3-(4-methylpiperazin-1-yl)azetidin-1-yl]-N^4-(pyrazin-2-yl)pyrimidine-2,4-diamine], in experiment [1], the GI50 worked out at 94 nM. The results for the IC50 against JAK2 tyrosine kinase and against JAK3 tyrosine kinase were 1.1 nM and 16 nM, respectively.

As to `C[C@H](Nc1nc(Nc2cnccn2)cc(N2CC(N3CCC(O)CC3)C2)n1)c1ccc(F)cc1` [Example 225], in experiment [1], the GI50 was found to be 64 nM. Also, the IC50 was 0.69 nM against JAK2 tyrosine kinase and 13 nM against JAK3 tyrosine kinase.

In the case of `C[C@H](Nc1nc(Nc2cnccn2)cc(N2CC(CO)C2)n1)c1ccc(F)cc1` [Example 228, (S)-(1-{2-[1-(4-Fluorophenyl)ethylamino]-6-(pyrazin-2-ylamino)pyrimidin-4-yl}azetidin-3-yl)methanol], the GI50 in experiment [1] was 89 nM. For the same molecule, the IC50 was found to be 1.1 nM on JAK2 tyrosine kinase and 19 nM against JAK3 tyrosine kinase.

As for `CCS(=O)(=O)NCC1CN(c2cc(Nc3cnccn3)nc(N[C@@H](C)c3ccc(F)cc3)n2)C1` [Example 231, (S)—N-[(1-{2-[1-(4-Fluorophenyl)ethylamino]-6-(pyrazin-2-ylamino)pyrimidin-4-yl}azetidin-3-yl)methyl]ethane sulfonamide], in experiment [1], the GI50 turned out to be 97 nM. Moreover, the values for the IC50 against JAK2 tyrosine kinase and on JAK3 tyrosine kinase were 0.59 nM and 33 nM, respectively.

(Values after US8586591B2, “Aminopyrazine derivative and medicine” (Nippon Shinyaku Co., Ltd., priority 2009, dated 2013).)
